{"source": "patent US6147107A", "about": "“Specific inhibition of the P42/44 mitogen activated protein (map) kinase cascade sensitizes tumor cells” (priority 1998, dated 2000)", "key": {"MEK1 and MEK2 [1]": {"test_system": "MEK1 and MEK2", "assay": "Inhibition of Raf-mediated phosphorylation/activation of MEK1/2", "type": "biochemical"}, "A431 cells [2]": {"test_system": "A431 cells", "assay": "TUNEL assay, apoptosis of A431 cells after radiation", "type": "cell-based, human", "protocol": "The ability of the cells to survive was assessed using TUNEL assays 24 hours after irradiation and the results are depicted in FIG. 4."}, "HL-60 cells [3]": {"test_system": "HL-60 cells", "assay": "Clonogenicity of HL-60 cells", "type": "cell-based, human", "protocol": "(§1) FIGS. 9a and 9b. […] HL-60 cells were exposed to ara-C (10 μM) in the absence or presence of aminomethoxyflavone (PD98059; 2.5 μM) for 6 hours. Apoptotic DNA damage and cell death were assessed as described in Methods. […] FIG. 9b.\nDetermination of Clonogenicity: Pelleted cells were rinsed extensively and prepared for soft-agar cloning. Cells were resuspended in cold PBS and seeded in 35-mm culture plates at a fixed density (400 cell/ml/well) in complete RPMI-1640 medium containing 20% fetal calf serum, 10% 5637-CM, and 0.3% Bacto agar. Cultures were mainatined for 10 to 12 days before formation of colonies (defined as groups of ≥50 cells) was scored."}, "HL-60 cells [4]": {"test_system": "HL-60 cells", "assay": "DNA strand breakage in HL-60 cells", "type": "cell-based, human", "conditions": "ara-C (10 μM) + PD98059 (2.5 μM), 6 hours", "protocol": "as §1\nQuantitative Analysis of DNA Damage: The formation and release of DNA fragments and the corresponding breakage of bulk DNA were assessed by bisbenzamide spectrofluorophtometry. To measure intracellular DNA fragments, pelleted cells (4×10^6 cells/pellet in quadruplicate)were resuspended in PBS and lysed by addition of 5 mM Tris-HCl, 30 mM EGTA, 30 mM EDTA, 0.1% Triton X-100, pH 8 (yielding a final density of 10^7 cells,ml) with gentle mechanical agitation. The lysates were centrifuged at 30,000× g at 4° C. for 40 minutes. […] The pellets were discarded and the presence of non-sedimenting DNA fragments in the supernatant from the lysate and medium extracts was quantified following dilution in modified Tris-sodium EGTA buffer (3 mM NaCl, 10 mM Tris-HCl, 1 mM EGTA, pH 8) by spectrofluorophotometry in the presence of Hoechst-33258 (1 μg/ml; μex=365, λem=460). Net fluorescence was directly proportional to the presence of DNA fragments; final values were calculated relative to a highly purified calf thymus DNA calibration standard, and are expressed as ng/μg DNA recovered or released from 10^6 cells. […]"}, "cancer cells": {"test_system": "cancer cells", "assay": "Radiosensitization of cancer cells", "type": "cell-based", "conditions": "general statement"}, "A431 cells [5]": {"test_system": "A431 cells", "assay": "[3H]thymidine incorporation into DNA of A431 cells", "type": "cell-based, human", "conditions": "PD98059 alone, over 96 hours; not shown"}, "HL-60 cells [6]": {"test_system": "HL-60 cells", "assay": "Apoptosis of HL-60 cells (ara-C)", "type": "cell-based, human", "protocol": "as §1"}, "MEK1 and MEK2 [7]": {"test_system": "MEK1 and MEK2", "conditions": "general statement on known inhibitors; cited from earlier work"}, "[8]": {"test_system": "p42/44 MAP kinase cascade", "assay": "Inhibition of p42/44 MAP kinase cascade activity in A431 cells", "type": "cell-based, human", "conditions": "PD98059, 1 Gy", "protocol": "(§2) Determination of MAPK Activity: Pelleted cells were rinsed in PBS, repelleted, and flash-frozen. Cell pellets were lysed in 25 mM Hepes, pH 7.4 containing 5 mM EGTA, 5 mM EDTA, supplemented with protease inhibitors (5 mM benzamidine, 1 mM phenylmethylsulfonylfluoride, 1 mg/ml soybean trypsin inhibitor, 40 μg/ml aprotinin, 1 μM microcystin LR) phosphatase inhibitors (0.5 mM trisodium orthovanadate, 0.5 mM tetrasodium pyrophosphate), and containing 0.056% sodium deoxycholate w/v, 1% Triton X-100 v/v, and 0.1% 2-mercaptoethanol v/v. Lysates were clarified by centrifugation at 5,000× g at 4° C. for 5 min. MAPK activity was assayed using MBP as a substrate following immunoprecipitation of p42/44 MAP kinase with protein A/agarose-conjugated antibody/antisera. Preimmune controls were also run to ensure selectivity of substrate phosphorylation. Reaction mixtures consisted of immunoprecipitated enzyme, substrate, and [γ-^32 P] ATP ([…]) in 25 mM Hepes, pH 7.4 containing 15 mM MgCl2, […], 0.01% (v/v) 2-mercaptoethanol, 1 μM […]. Reactions were initiated by the addition of substrate. MAPK reactions were terminated by transfer to p81 filter paper; filters were rinsed repeatedly in 185 mM orhtophosphoric acid, and then dehydrated in acetone. Total radioactivity in filters was determined by liquid scintillometry."}, "A431 cells [9]": {"test_system": "A431 cells", "assay": "Propidium iodide staining (necrosis/cell integrity) of A431 cells after radiation", "type": "cell-based, human", "conditions": "PD98059 + 1 Gy; data not shown"}, "p42/44 MAP kinase": {"test_system": "p42/44 MAP kinase", "assay": "MAP kinase activity in HL-60 cells (immunoprecipitation, MBP substrate)", "type": "cell-based, human", "protocol": "FIG. 8. […] HL-60 cells were exposed to ara-C (10 μM) in the absence or presence of aminomethoxyflavone (PD98059; 2.5 μM) for 3 hours. MAP kinase activity (p42-ERK1/p44-ERK2) was determined by in vitro assay. In each case, values reflect the mean ±SE of duplicate determinations, and are expressed as a percentage of basal activity present in untreated controls.\nas §2\nHL-60 cells were exposed to ara-C in the absence or presence of PD98059. Following this treatment, the cells were eveluated for MAP kinase activity, DNA strand breakage, clonogenicity potential and extent of apoptosis."}, "HL-60 cells [10]": {"test_system": "HL-60 cells", "assay": "Taxol-mediated apoptosis of HL-60 cells"}, "A431 cells [11]": {"test_system": "A431 cells"}, "[12]": {"conditions": "ara-C (10 μM) + PD98059 (2.5 μM), 6 hours"}}, "note": "Entries after “also recorded” stand apart in the source; their conditions may differ. Read-outs that look alike come from different tables or passages of the source.", "data": [{"compound": "COc1cccc(-c2cc(=O)c3ccccc3o2)c1N", "note": "[PD98059, 2'-amino-3'-methoxy-flavone]", "values": [{"measurement": "inhibition of MEK1 and MEK2", "setting": "MEK1 and MEK2 [1]; general statement", "result": "all inhibit MEK1 and MEK2"}, {"measurement": "inhibition of Raf phosphorylation of MEK1 and MEK2", "setting": "MEK1 and MEK2 [1]; stated as demonstrated by the applicant", "result": "inhibiting the ability of Raf protein kinases to phosphorylate MEK1 and MEK2"}, {"measurement": "enhancement ratio, co-treatment versus either radiation or PD98059 alone", "setting": "A431 cells [2]; 5 μM PD98059 + 1 Gy", "result": "approximately threefold"}, {"measurement": "percentage of cells exhibiting double stranded DNA breaks", "setting": "A431 cells [2]; 5 μM PD98059 + 1 Gy, increased from ~4 to 15", "result": "4-15%"}, {"measurement": "amount of cell killing compared to either treatment alone", "setting": "A431 cells [2]; 5 μM PD98059 + single 1 Gy exposure", "result": "tripled"}, {"measurement": "potentiation of cell death (TUNEL)", "setting": "A431 cells [2]; 5, 10 and 20 μM PD98059 + 1 Gy radiation", "result": "large potentiation of cell death"}, {"measurement": "effect upon the basal levels of cell viability", "setting": "A431 cells [2]; PD98059 alone, low concentrations, 24 hours", "result": "small non-significant detrimental effect"}, {"measurement": "clonogenic potential", "setting": "HL-60 cells [3]; [12]", "result": "practically nullified"}, {"measurement": "clonogenic potential, single agent", "setting": "HL-60 cells [3]; either agent alone", "result": "neither alone had this effect"}, {"measurement": "DNA strand breakage induced by ara-C", "setting": "HL-60 cells [4]", "result": "substantially increased"}, {"measurement": "radiosensitization of cancer cells", "setting": "cancer cells", "result": "all cause radiosensitization of cancer cells"}, {"measurement": "proliferative capacity ([3H]thymidine incorporation)", "setting": "A431 cells [5]", "result": "overall dose-dependent decrease in proliferative capacity"}, {"measurement": "potentiation of apoptotic activity of ara-C", "setting": "HL-60 cells [6]; PD98059 + ara-C", "result": "Potentiation of ara-C-induced apoptosis; also recorded: highly effective"}, {"measurement": "extent of apoptosis attributable to ara-C action", "setting": "HL-60 cells [6]; [12]", "result": "dramatically increased"}, {"measurement": "mode of action at MEK1/2", "setting": "MEK1 and MEK2 [7]", "result": "bind to MEK1/2 and sterically prevent Raf from binding"}, {"measurement": "correlation of MAP kinase cascade inhibition with potentiation of cell death", "setting": "[8]", "result": "correlated with its dose-dependent ability to potentiate cell death"}, {"measurement": "potentiation of cell death (propidium iodide staining of unfixed cells)", "setting": "A431 cells [9]", "result": "large potentiation of cell death"}, {"measurement": "MAP kinase activity", "setting": "p42/44 MAP kinase; 2.5 μM PD98059, with or without ara-C (10 μM), 3 hours", "result": "Suppression of MAP kinase activity"}, {"measurement": "suppression of ara-C-related stimulation of MAP kinase", "setting": "p42/44 MAP kinase; 5 μM PD98059 + ara-C", "result": "completely suppresses"}, {"measurement": "basal MAP kinase activity", "setting": "p42/44 MAP kinase; 1-100 μM PD98059, acute exposure", "result": "pronounced concentration-related decline"}, {"measurement": "Emax", "setting": "p42/44 MAP kinase; Homo sapiens, HL-60, 1-100 μM PD98059, read-out: maximal decrease of basal MAP kinase activity", "result": "≥ 65", "unit": "%"}, {"measurement": "EC50", "setting": "p42/44 MAP kinase; Homo sapiens, HL-60, PD98059, acute exposure, read-out: EC50, decline of basal MAP kinase activity", "result": "≤ 5", "unit": "µM"}, {"measurement": "cytotoxicity at 10 µM", "setting": "HL-60 cells [10]; Homo sapiens, HL-60, 15 h, read-out: apoptotic cells, PD98059 alone", "result": "6 to 7", "unit": "%"}, {"measurement": "cell death, taxol plus PD98059", "setting": "HL-60 cells [10]; taxol 0.5 μM + PD98059 10 μM", "result": 58, "unit": "%"}, {"measurement": "cellular proliferation (MTT)", "setting": "A431 cells [11]; 5, 10 or 20 μM PD98059 + 1 Gy", "result": "markedly decreased cellular proliferation"}, {"measurement": "enhancement ratios (MTT)", "setting": "A431 cells [11]; PD98059 + 1 Gy", "result": "at least threefold"}, {"measurement": "proliferative rate (MTT)", "setting": "A431 cells [11]; PD98059 + 1 Gy radiation, 4-8 days", "result": "Decreased proliferative rate"}, {"measurement": "proliferative capacity versus either exposure or treatment alone (MTT)", "setting": "A431 cells [11]; PD98059 + radiation, 4-8 days", "result": "large reduction in proliferative capacity"}, {"measurement": "proliferative rate (MTT)", "setting": "A431 cells [11]; PD98059 alone, 4-8 days", "result": "Decreased proliferative rate"}]}]}
